Reference: article PMC8455565 (Scientific Reports, 2021)

Legend:
BTK [1] = target: T1, BTK (Homo sapiens, UniProt Q06187); assay: BTK occupancy in B cell line (Ramos cells, biotinylated probe, AlphaScreen); assay type: cell-based
Protocol: A total of 5 × 10^5 Ramos cells/well were plated in 96-well PDL-coated plates in DMEM with high glucose (GIBCO) supplemented with 10% FBS. Serial dilutions of LY3439943 in DMSO (final DMSO concentration, 0.4%) were incubated with the cells for 1 h at 37 °C. An equal volume of a covalent biotinylated BTK probe was added (final concentration, 167 nM), and the cells were incubated for another 1 h at 37 °C. The cells were lysed, and the amount of BTK was determined using the AlphaScreen IgG Detection Kit (Perkin Elmer 6760617R) and an anti-BTK antibody (Thermo Scientific Cat# MA5-14929) following the manufacturer’s instructions. The signal was measured at 615 nm with an Envision plate reader (Perkin Elmer).

[2] = Plasma pharmacokinetics in CIA model rats; assay type: in vivo; conditions: Lewis, rat; for AUC(0-t) / Tmax / Cmax: day 9, mean ± SD; for Cmax: po
Protocol: After drug administration, whole blood was collected from CIA model rats and human subjects at the indicated times. Plasma was obtained by centrifugation at 12,000 rpm for 2 min and stored at − 20 °C until analysis.

BTK [3] = target: T2, BTK (Rattus norvegicus, UniProt Q5S255); assay: BTK occupancy and BTK phosphorylation in CIA model rats (PD); assay type: in vivo; conditions: for correlation coefficient, arthritis score vs BTK occupancy: negative correlation; for correlation coefficient, clinical arthritis score vs BTK phosphorylation: positive correlation
T2 construct: endogenous in cells; host or cells: rat PBMCs (normal rats in vitro; CIA model rats ex vivo)
T2 sequence (Q5S255 1-660): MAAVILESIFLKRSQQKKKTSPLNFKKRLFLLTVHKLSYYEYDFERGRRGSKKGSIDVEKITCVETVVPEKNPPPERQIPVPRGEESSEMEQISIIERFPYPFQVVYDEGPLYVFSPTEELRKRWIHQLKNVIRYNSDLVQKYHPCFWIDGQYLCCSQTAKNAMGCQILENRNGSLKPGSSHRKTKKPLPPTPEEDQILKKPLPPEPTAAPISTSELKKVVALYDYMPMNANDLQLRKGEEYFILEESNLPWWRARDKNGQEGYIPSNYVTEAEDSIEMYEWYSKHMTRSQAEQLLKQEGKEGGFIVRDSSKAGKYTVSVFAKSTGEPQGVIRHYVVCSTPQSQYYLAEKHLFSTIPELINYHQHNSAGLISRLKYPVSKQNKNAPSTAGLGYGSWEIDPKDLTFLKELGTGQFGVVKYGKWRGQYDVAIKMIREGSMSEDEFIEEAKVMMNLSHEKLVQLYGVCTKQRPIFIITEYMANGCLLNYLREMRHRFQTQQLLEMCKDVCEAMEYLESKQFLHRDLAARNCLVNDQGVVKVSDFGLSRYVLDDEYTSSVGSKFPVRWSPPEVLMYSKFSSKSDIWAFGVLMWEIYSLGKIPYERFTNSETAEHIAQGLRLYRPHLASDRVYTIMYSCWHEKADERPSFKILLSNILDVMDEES
Protocol: The BTK occupancy assay and analysis of BTK phosphorylation inhibition were performed as described previously. Briefly, isolated PBMCs were lysed with RIPA buffer (R0278, Sigma-Aldrich) containing 1 × protease/phosphatase inhibitor (1861281, Thermo Fisher Scientific) and EDTA (1861274, Thermo Fisher Scientific). The supernatants were collected by 10 min at 14,000 × g in microcentrifuge at 4 °C and biotinylated probe was added to bind free BTK for 1 h. Rabbit anti-BTK Ab (1:5000 in 1% BSA) bound the captured BTK/probe complex, and was detected with […] antibody conjugated with HRP then ultra-TMB solution was added to each well for the free BTK analysis. Analysis of free and total BTK levels for the phase I study was conducted by Cambridge Biomedical Inc. (MA, USA). BTK occupancy was calculated by taking the free BTK and total BTK results from a given donor and used the following formula: %BTKoccupancy=100%-FreeBTK/totalBTK×100.
For analysis of BTK phosphorylation inhibition, the relative percentage of phosphorylated BTK was calculated by the following equation: phospho-BTK level / total BTK level × 100. The results are presented as the mean percentage ± S.D.
Figure 5 Pharmacologic inhibition of BTK and its correlation with efficacy. (A,B) Whole blood was collected from the CIA-induced rats at the 0, 4, 12, 24 h after final drug administration, and then PBMCs and plasma were isolated. BTK phosphorylation was detected by immunoblotting and normalized to the total BTK level, and BTK occupancy was measured by ELISA using a biotinylated probe as described in the Materials and Methods. […] Full-length blots are presented in Supplementary Fig. 1. (C) Correlations between drug efficacy (clinical arthritis score) and the PD markers BTK phosphorylation percentage (left)/drug efficacy and BTK occupancy percentage (right). Linear regression was performed by using GraphPad Prism 6. The data are presented as the mean ± S.D.

Monocytes (M-CSF) = assay: High-dimensional phosphorylation analysis, Monocytes (M-CSF); assay type: cell-based, human
Protocol: (§1) The analysis measured 94 intracellular signaling nodes (81 phosphorylation sites, 10 total protein levels and 3 methylation/acetylation sites) in stimulated immune cells, including B cells (IgM plus CD40L), CD4 + and CD8 + T cells (IL-2; CD3 plus CD28), monocytes (M-CSF), NK cells (IL-2), and granulocytes (LPS).

Neutrophils (LPS) = assay: High-dimensional phosphorylation analysis, Neutrophils (LPS); assay type: cell-based, human; conditions: 30 µM, 15'
Protocol: as §1

B cells = assay: B cell inhibition in whole blood; assay type: cell-based
BTK [4] = target: T1, BTK; assay: BTK kinase activity, Z'-LYTE FRET biochemical assay; design: purchased Thermo Fisher Scientific PV3363; conditions: mean ± S.D; read-out: IC50, hBTK biochemical assay
Protocol: The kinase activity of BTK was measured using the Z′-LYTE assay based on fluorescence resonance energy transfer (FRET). […] Briefly, BTK, peptide, ATP and inhibitor mixtures were incubated for 1 h at room temperature. Then, Development Reagent A was added to each well, and incubation proceeded for another 1 h. […] The data were analyzed by GraphPad Prism 6 (GraphPad Software, CA, USA) to determine the IC50 values.

CTLL-2 = assay: IL-2 induced T cell proliferation in CTLL-2; assay type: cell-based; conditions: Mus musculus, cellular level
NK cells (LPS) = assay: High-dimensional phosphorylation analysis, NK cells (LPS); assay type: cell-based, human; conditions: 30 µM, 60'

T1 sequence (Q06187 whole entry): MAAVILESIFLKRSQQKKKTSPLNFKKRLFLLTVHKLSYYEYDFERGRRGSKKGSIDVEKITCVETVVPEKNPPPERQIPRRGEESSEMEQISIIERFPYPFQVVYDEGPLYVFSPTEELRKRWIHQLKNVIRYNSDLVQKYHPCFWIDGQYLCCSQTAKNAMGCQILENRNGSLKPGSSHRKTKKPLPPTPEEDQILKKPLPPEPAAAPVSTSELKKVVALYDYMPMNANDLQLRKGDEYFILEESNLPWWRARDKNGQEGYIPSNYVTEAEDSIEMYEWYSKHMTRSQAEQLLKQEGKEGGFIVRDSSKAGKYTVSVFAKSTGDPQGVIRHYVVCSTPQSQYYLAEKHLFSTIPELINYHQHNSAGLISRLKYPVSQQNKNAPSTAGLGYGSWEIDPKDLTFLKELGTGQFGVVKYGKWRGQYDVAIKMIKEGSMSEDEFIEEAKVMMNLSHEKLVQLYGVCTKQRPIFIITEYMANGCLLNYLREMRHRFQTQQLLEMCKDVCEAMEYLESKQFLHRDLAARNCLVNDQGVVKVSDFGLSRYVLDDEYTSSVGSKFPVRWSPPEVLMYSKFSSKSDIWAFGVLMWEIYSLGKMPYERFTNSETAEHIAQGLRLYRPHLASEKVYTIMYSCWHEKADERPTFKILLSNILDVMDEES

- IC50 (BTK [1]): 5 nM
- AUC(0-t) ([2]; 0.3 mg/kg oral): 2 ± 1.8 ng·h/mL
- Tmax ([2]; 0.3 mg/kg oral): 36 ± 18 min
- AUC(0-t) ([2]; 1 mg/kg oral): 10 ± 3.6 ng·h/mL
- Tmax ([2]; 1 mg/kg oral): 30 min
- AUC(0-t) ([2]; 3 mg/kg oral): 49.9 ± 10.4 ng·h/mL
- Tmax ([2]; 3 mg/kg oral): 84 ± 108 min
- concentration at 4 h ([2]; oral, all treatment groups (0.3, 1, 3 mg/kg), day 9, below LLOQ, read-out: plasma concentration at 4 h after drug administration): < 0.5 ng/mL
- Cmax ([2]; 0.3 mg/kg, 0.3 mg/kg oral): 1.5 ± 0.5 ng/mL
- Cmax ([2]; 1 mg/kg, 1 mg/kg oral): 7.3 ± 3.3 ng/mL
- Cmax ([2]; 3 mg/kg, 3 mg/kg oral): 22.6 ± 2.3 ng/mL
- BTK occupancy (BTK [3]; 3 mg/kg, 4 h after the last administration): full BTK occupancy
- BTK occupancy (BTK [3]; 3 mg/kg, at 12 and 24 h): completely occupied
- BTK occupancy (BTK [3]; 0.3 and 1 mg/kg, 4 h after the last administration): partial BTK occupancy
- BTK phosphorylation (BTK [3]; 0.3 and 1 mg/kg, at 12 and 24 h): partially inhibited
- correlation coefficient, arthritis score vs BTK occupancy (BTK [3]; 4 h): 0.8003
- correlation coefficient, clinical arthritis score vs BTK phosphorylation (BTK [3]; 4 h): 0.6750
- correlation coefficient, arthritis score vs BTK occupancy (BTK [3]; 12 h): 0.8757
- correlation coefficient, clinical arthritis score vs BTK phosphorylation (BTK [3]; 12 h): 0.7795
- correlation coefficient, arthritis score vs BTK occupancy (BTK [3]; 24 h): 0.8528
- correlation coefficient, clinical arthritis score vs BTK phosphorylation (BTK [3]; 24 h): 0.8603
- IC50 (B cells): 420 nM
- IC50 (BTK [4]): 4 nM
SMILES: C=CC(=O)Nc1cccc(Oc2nc(Nc3ccc(N4CCN(C)CC4)cc3)nc3ccoc23)c1 [Poseltinib]
- AKT1 phosphorylation, Log2Ratio Stim/Control (Monocytes (M-CSF); 30 µM, 5'): 0.41
- Akt phosphorylation, Log2Ratio Stim/Control (Monocytes (M-CSF); 30 µM, 5'): 1.06
- BTK phosphorylation, Log2Ratio Stim/Control (Monocytes (M-CSF); 30 µM, 5'): -0.12
- GSK3B phosphorylation, Log2Ratio Stim/Control (Monocytes (M-CSF); 30 µM, 5'): 0.82
- HSP27 phosphorylation, Log2Ratio Stim/Control (Monocytes (M-CSF); 30 µM, 5'): 1.80
- MAPK3 phosphorylation, Log2Ratio Stim/Control (Monocytes (M-CSF); 30 µM, 5'): 1.88
- NDRG1 phosphorylation, Log2Ratio Stim/Control (Monocytes (M-CSF); 30 µM, 5'): 0.97
- RELB phosphorylation, Log2Ratio Stim/Control (Monocytes (M-CSF); 30 µM, 5'): 0.82
- RPS6KA1 phosphorylation, Log2Ratio Stim/Control (Monocytes (M-CSF); 30 µM, 5'): 1.33
- RPS6 phosphorylation, Log2Ratio Stim/Control (Monocytes (M-CSF); 30 µM, 5'): 0.89
- AKT phosphorylation in monocytes stimulated with M-CSF (Monocytes (M-CSF); data not shown): did not inhibit
- 4ebp1 phosphorylation, Log2Ratio Stim/Control (Neutrophils (LPS)): 0.28
- AKT1 phosphorylation, Log2Ratio Stim/Control (Neutrophils (LPS)): 0.66
- AMPK phosphorylation, Log2Ratio Stim/Control (Neutrophils (LPS)): 0.29
- Akt phosphorylation, Log2Ratio Stim/Control (Neutrophils (LPS)): 0.66
- BTK phosphorylation, Log2Ratio Stim/Control (Neutrophils (LPS)): -0.25
- HSP27 phosphorylation, Log2Ratio Stim/Control (Neutrophils (LPS)): 0.34
- MAP2K1 phosphorylation, Log2Ratio Stim/Control (Neutrophils (LPS)): 2.38
- MNK phosphorylation, Log2Ratio Stim/Control (Neutrophils (LPS)): 0.40
- RPS6 phosphorylation, Log2Ratio Stim/Control (Neutrophils (LPS)): 0.66
- IC50 (CTLL-2): > 500 nM
- AKT1 phosphorylation, Log2Ratio Stim/Control (NK cells (LPS)): 0.44
- Akt phosphorylation, Log2Ratio Stim/Control (NK cells (LPS)): 0.54
- BTK phosphorylation, Log2Ratio Stim/Control (NK cells (LPS)): -0.04
- GSK3B phosphorylation, Log2Ratio Stim/Control (NK cells (LPS)): 0.91
- MAP2K1 phosphorylation, Log2Ratio Stim/Control (NK cells (LPS)): 0.51
- MNK phosphorylation, Log2Ratio Stim/Control (NK cells (LPS)): 0.07
- P38 phosphorylation, Log2Ratio Stim/Control (NK cells (LPS)): 0.36
- RPS6 phosphorylation, Log2Ratio Stim/Control (NK cells (LPS)): 0.30
- SMAD2 phosphorylation, Log2Ratio Stim/Control (NK cells (LPS); first SMAD2 line): 0.67
- SMAD2 phosphorylation, Log2Ratio Stim/Control (NK cells (LPS); second SMAD2 line): 0.07
